{
  "source": "patent US20130217722A1",
  "about": "“NOVEL COMPOUND USEFUL FOR THE TREATMENT OF DEGENERATIVE AND INFLAMMATORY DISEASES” (priority 2012, published 2013)",
  "key": {"JAK1 [1]": {"target": "T1, JAK1 (Homo sapiens, UniProt P23458)", "T1 construct": "Recombinant human JAK1 (catalytic domain, amino acids 866-1154; catalog number PV4774) was purchased from Invitrogen; purchased Invitrogen PV4774", "T1 sequence (P23458 866-1154)": "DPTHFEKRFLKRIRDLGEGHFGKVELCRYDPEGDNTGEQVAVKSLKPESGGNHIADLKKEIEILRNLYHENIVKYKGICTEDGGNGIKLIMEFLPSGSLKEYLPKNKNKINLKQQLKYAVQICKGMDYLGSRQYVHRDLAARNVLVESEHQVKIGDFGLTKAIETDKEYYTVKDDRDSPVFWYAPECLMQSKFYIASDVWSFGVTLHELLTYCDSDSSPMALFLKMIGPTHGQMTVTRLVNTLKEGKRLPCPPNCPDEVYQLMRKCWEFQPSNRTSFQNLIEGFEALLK", "assay": "JAK1 Ulight-JAK1 peptide assay", "type": "biochemical", "experimental": "Recombinant human JAK1 (catalytic domain, amino acids 866-1154; catalog number PV4774) was purchased from Invitrogen. 1 ng of JAK1 was incubated with 20 nM Ulight-JAK1(tyr1023) peptide (Perkin Elmer catalog number TRF0121) in kinase reaction buffer (25 mM MOPS pH6.8, 0.01% Brij-35, 5 mM MgCl2, 2 mM DTT, 7 μM ATP) with or without 4 μL containing test compound or vehicle (DMSO, 1% final concentration), in a total volume of 20 μL, in a white 384 Opti plate (Perkin Elmer, catalog number 6007290). […] Readout is performed using the Envision with excitation at 320 nm and measuring emission at 615 nm (Perkin Elmer). Kinase activity was calculated by subtracting relative fluorescence units (RFU) obtained in the presence of a positive control inhibitor (10 μM staurosporine) from RFU obtained in the presence of vehicle. The ability of a test compound to inhibit this activity was determined as:\nPercentage inhibition=((RFU determined for sample with test compound present−RFU determined for sample with positive control inhibitor) divided by (RFU determined in the presence of vehicle−RFU determined for sample with positive control inhibitor))*100.\nDose dilution series were prepared for the compounds enabling the testing of dose-response effects in the JAK1 assay and the calculation of the IC50 for the compound. […] The data are expressed as the average IC50 from the assays ±standard error of the mean."}, "JAK1 [2]": {"target": "T1, JAK1", "assay": "JAK1 Ki determination assay", "type": "biochemical", "details": "Lineweaver-Burk, varying ATP; read-out: Ki against JAK1", "experimental": "For the determination of Ki, different amounts of compound were mixed with the enzyme and the enzymatic reaction was followed as a function of ATP concentration. The Ki was determined by means of double reciprocal plotting of Km vs compound concentration (Lineweaver-Burk plot). 1 ng of JAK1 (Invitrogen, PV4774) is used in the assay. The substrate was 50 nM Ulight-JAK-1 (Tyr1023) Peptide (Perkin Elmer, TRF0121) The reaction is performed in 25 mM MOPS pH 6.8, 0.01%, 2 mM DTT, 5 mM MgCl2 Brij-35 with varying concentrations of ATP and compound. Phosphorylated substrate was measured using an Eu-labeled anti-phosphotyrosine antibody PT66 (Perkin Elmer, AD0068) as described in 1.1.2. Readout was performed on the envision (Perkin Elmer) with excitation at 320 nm and emission followed at 615 nm and 665 nm."}, "JAK2": {"target": "T2, JAK2 (Homo sapiens, UniProt O60674)", "T2 construct": "Recombinant human JAK2 catalytic domain (amino acids 808-1132; catalog number PV4210) was purchased from Invitrogen; purchased Invitrogen PV4210", "T2 sequence (O60674 808-1132)": "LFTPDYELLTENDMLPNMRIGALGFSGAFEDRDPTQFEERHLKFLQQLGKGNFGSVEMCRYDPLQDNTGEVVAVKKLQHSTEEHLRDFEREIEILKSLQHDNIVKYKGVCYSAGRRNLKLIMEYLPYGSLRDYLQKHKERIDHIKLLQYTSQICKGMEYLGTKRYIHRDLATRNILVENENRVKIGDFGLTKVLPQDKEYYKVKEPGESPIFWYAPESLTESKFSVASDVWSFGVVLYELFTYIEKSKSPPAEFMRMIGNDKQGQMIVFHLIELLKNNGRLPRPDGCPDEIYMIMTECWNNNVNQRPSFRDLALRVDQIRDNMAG", "assay": "JAK2 Ki determination assay (kinase tracer binding)", "details": "kinase tracer 236 binding; read-out: Ki against JAK2", "experimental": "JAK2 (Invitrogen, PV4210) was used at a final concentration of 5 nM. The binding experiment was performed in 50 mM Hepes pH 7.5, 0.01% Brij-35, 10 mM MgCl2, 1 mM EGTA using 25 nM kinase tracer 236 (Invitrogen, PV5592) and 2 nM Eu-anti-GST (Invitrogen, PV5594) with varying compound concentrations. Detection of tracer was performed according to the manufacturer's procedure."}, "[3]": {"target": "T3, Recombinant human JAK3 catalytic domain (Homo sapiens, UniProt P52333)", "T3 construct": "Recombinant human JAK3 catalytic domain (amino acids 781-1124; catalog number PV3855) was purchased from Invitrogen; purchased Invitrogen PV3855", "T3 sequence (P52333 781-1124)": "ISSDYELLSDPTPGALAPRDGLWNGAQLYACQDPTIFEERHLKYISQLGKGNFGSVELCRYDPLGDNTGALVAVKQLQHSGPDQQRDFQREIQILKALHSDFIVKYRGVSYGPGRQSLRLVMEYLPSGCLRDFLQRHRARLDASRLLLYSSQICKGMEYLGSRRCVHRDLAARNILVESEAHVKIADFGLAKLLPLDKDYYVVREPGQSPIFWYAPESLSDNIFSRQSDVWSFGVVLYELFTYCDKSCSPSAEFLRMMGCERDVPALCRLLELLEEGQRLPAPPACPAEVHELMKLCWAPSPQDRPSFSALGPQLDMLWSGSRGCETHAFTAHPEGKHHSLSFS", "assay": "JAK3 inhibition assay (polyGT substrate)", "type": "biochemical", "experimental": "Recombinant human JAK3 catalytic domain (amino acids 781-1124; catalog number PV3855) was purchased from Invitrogen. 0.5 ng JAK3 protein was incubated with 2.5 μg polyGT substrate (Sigma catalog number P0275) in kinase reaction buffer (25 mM Tris pH 7.5, 0.5 mM EGTA, 10 mM MgCl2, 2.5 mM DTT, 0.5 mM Na3VO4, 5 mM b-glycerolphosphate, 0.01% Triton X-100, 1 μM non-radioactive ATP, 0.25 μCi ^33P-gamma-ATP (GE Healthcare, catalog number AH9968) final concentrations) with or without 5 μL containing test compound or vehicle (DMSO, 1% final concentration), in a total volume of 25 μL, in a polypropylene 96-well plate (Greiner, V-bottom). After 45 min at 30° C., reactions were stopped by adding 25 μL/well of 150 mM phosphoric acid. […] 40 μL/well of Microscint-20 was added, the top of the plates was sealed and readout was performed using the Topcount (Perkin Elmer). Kinase activity was calculated by subtracting counts per min (cpm) obtained in the presence of a positive control inhibitor (10 μM staurosporine) from cpm obtained in the presence of vehicle. The ability of a test compound to inhibit this activity was determined as:\nPercentage inhibition=((cpm determined for sample with test compound present−cpm determined for sample with positive control inhibitor) divided by (cpm determined in the presence of vehicle−cpm determined for sample with positive control inhibitor))*100. […]"}, "CTLL2 cells": {"test_system": "CTLL2 cells", "assay": "CTLL2 viability assay (IL2-dependent)", "type": "cell-based", "details": "ATP content", "experimental": "The protocol describes the methods to analyse the activity of compounds on the ability to sustain the IL2-dependent viability of CTLL2\nNegative control is a DMSO dilution, positive control at 10 μM. Final DMSO concentration is 0.1%."}},
  "note": "Several values for one entry are separate records, joined by “and”; a condition that tells them apart may be missing. Equal values may be shown once.",
  "data": [
    {"compound": "CCc1cc(C2=CCN(C(=O)CC#N)CC2)ccc1N(C)c1cc2c(cn1)ncn2C", "note": "[Compound 1]", "values": [
      {"measurement": "selectivity for JAK1 vs the other JAK family members (JAK2, JAK3, and TYK2)", "setting": "JAK1 [1]", "value": "at least 9 fold"},
      {"measurement": "IC50", "setting": "JAK1 [1]; Ulight-JAK1(tyr1023) peptide, 7 μM ATP, individual determinations, read-out: IC50 against JAK1", "value": "1.37 nM and 1.47 nM and 1.6 nM and 3.08 nM and 1.13 nM and 1.45 nM (2×) and 1.92 nM and 2.34 nM and 2.42 nM and 1.42 nM and 4.09 nM and 4.14 nM and 3.63 nM and 3.46 nM and 2.31 nM and 0.815 nM and 6.84 nM and 6.14 nM and 0.756 nM"},
      {"measurement": "Ki", "setting": "JAK1 [2]", "value": 3.69, "unit": "nM"},
      {"measurement": "Ki", "setting": "JAK2", "value": 25.1, "unit": "nM"},
      {"measurement": "JAK1 selectivity vs JAK3", "setting": "[3]", "value": 30, "unit": "fold"},
      {"measurement": "IC50", "setting": "[3]; polyGT substrate, 1 μM ATP, individual determinations, read-out: IC50 against JAK3", "value": "160 nM and 65.2 nM and 142 nM and 66.9 nM and 30.9 nM and 32.8 nM and 38 nM and 66.6 nM"},
      {"measurement": "IC50", "setting": "CTLL2 cells; 24 h, listed as compound of the invention", "value": 2440, "unit": "nM"},
      {"measurement": "IC50", "setting": "CTLL2 cells; Mus musculus, CTLL-2, 24 h", "value": 1810, "unit": "nM"}
    ]}
  ]
}
